Laboratory results published in ChEMBL document CHEMBL5131569, “SAGE-718: A First-in-Class N-Methyl-d-Aspartate Receptor Positive Allosteric Modulator for the Potential Treatment of Cognitive Impairment” (J Med Chem, 2022).
≈ marks a conversion by molar mass, not a printed value. Blank lines part the entries; values can stand above or below the compound they belong to.

How the values were obtained:
[1] = biological target: T1, Glutamate NMDA receptor; GRIN1/GRIN2A (Homo sapiens, UniProt Q05586+Q12879); assay: Positive allosteric modulation of recombinant human GluN1/GluN2A receptor stably expressed in HEK293 cells assessed as increase in glycine/L-glutamate-induced channel current at -70 mV holding potential by whole cell patch clamp method; type: cell-based
[2] = biological target: T2, Glutamate NMDA receptor; GRIN1/GRIN2B (Homo sapiens, UniProt Q05586+Q13224); assay: Positive allosteric modulation of recombinant human GluN1/GluN2B receptor stably expressed in HEK293 cells assessed as increase in glycine/L-glutamate-induced channel current at -70 mV holding potential by whole cell patch clamp method; type: cell-based
[3] = biological target: T1, Glutamate NMDA receptor; GRIN1/GRIN2A; assay: Positive allosteric modulation of recombinant human GluN1/GluN2A receptor stably expressed in HEK293 cells assessed as increase in glycine/L-glutamate-induced channel current at -70 mV holding potential by whole cell patch clamp method relative to control; type: cell-based; conditions: filed as positive allosteric modulator
[4] = biological target: T2, Glutamate NMDA receptor; GRIN1/GRIN2B; assay: Positive allosteric modulation of recombinant human GluN1/GluN2B receptor stably expressed in HEK293 cells assessed as increase in glycine/L-glutamate-induced channel current at -70 mV holding potential by whole cell patch clamp method relative to control; type: cell-based; conditions: filed as positive allosteric modulator
[5] = Clearance in po dosed rat; type: ADME, organism-based; conditions: in vivo
[6] = Half life in po dosed rat; type: ADME, organism-based; conditions: in vivo
[7] = Oral bioavailability in rat; type: ADME, organism-based; conditions: in vivo
[8] = Metabolic stability in rat liver microsomes assessed as intrinsic clearance at 10 uM preincubated for 5 mins followed by NADPH addition and measured upto 65 mins by LC-MS/MS analysis; type: ADME, Microsome; conditions: time < 70 min, read-out: CLH
[9] = Lipophilicity, logD of compound in MeOH at 20 uM by HPLC analysis; type: physicochemical
[10] = Metabolic stability in mouse liver microsomes assessed as intrinsic clearance at 10 uM preincubated for 5 mins followed by NADPH addition and measured upto 65 mins by LC-MS/MS analysis; type: ADME, Microsome; conditions: time < 70 min, read-out: CLH
[11] = Metabolic stability in human liver microsomes assessed as intrinsic clearance at 10 uM preincubated for 5 mins followed by NADPH addition and measured upto 65 mins by LC-MS/MS analysis; type: ADME, Microsome; conditions: time < 70 min, read-out: CLH
[12] = Clearance in Sprague-Dawley rat by LC-MS/MS analysis; type: ADME; conditions: in vivo
[13] = Oral bioavailability in Sprague-Dawley rat by LC-MS/MS analysis; type: ADME, organism-based; conditions: in vivo
[14] = Ratio of drug concentration in ip dosed CD-1 mouse brain to plasma after 1 hr by LC-MS/MS analysis; type: ADME, organism-based; conditions: brain and plasma
[15] = Aqueous solubility of compound in PBS incubated for 1 hr under shaking condition by HPLC-MS/MS analysis; type: physicochemical
[16] = Metabolic stability in dog liver microsomes assessed as intrinsic clearance at 10 uM preincubated for 5 mins followed by NADPH addition and measured upto 65 mins by LC-MS/MS analysis; type: ADME, Canis lupus familiaris, Microsome; conditions: time < 70 min, read-out: CLH
[17] = Clearance in CD-1 mouse by LC-MS/MS analysis; type: ADME; conditions: in vivo
[18] = Clearance in Beagle dog by LC-MS/MS analysis; type: ADME, Canis lupus familiaris; conditions: in vivo
[19] = Oral bioavailability in CD-1 mouse by LC-MS/MS analysis; type: ADME, organism-based; conditions: in vivo
[20] = Oral bioavailability in Beagle dog by LC-MS/MS analysis; type: ADME, organism-based, Canis lupus familiaris; conditions: in vivo

Structure (SMILES): C#C[C@](C)(O)CC[C@@H](C)[C@H]1CC[C@H]2[C@@H]3CC=C4C[C@@](C)(O)CC[C@]4(C)[C@H]3CC[C@]12C
EC50 [1]: > 10000 nM | EC50 [2]: > 10000 nM

Structure (SMILES): C[C@H](CC[C@](C)(O)C(F)(F)F)[C@H]1CC[C@H]2[C@@H]3CC[C@@H]4C[C@@](C)(O)CC[C@]4(C)[C@H]3CC[C@]12C
EC50 [1]: > 10000 nM | EC50 [2]: > 10000 nM

Structure (SMILES): CCCC[C@@](C)(O)CC[C@@H](C)[C@H]1CC[C@H]2[C@@H]3CC=C4C[C@@](C)(O)CC[C@]4(C)[C@H]3CC[C@]12C
EC50 [1]: 160 nM | Emax [3]: 190% | EC50 [2]: 190 nM | Emax [4]: 170%

Structure (SMILES): C[C@H](CC[C@](C)(O)C(F)(F)F)[C@H]1CC[C@H]2[C@@H]3CC[C@H]4C[C@@](C)(O)CC[C@]4(C)[C@H]3CC[C@]12C
EC50 [1]: 180 nM | Emax [3]: 150% | EC50 [2]: 110 nM | Emax [4]: 100%

Structure (SMILES): C[C@H](CC[C@](C)(O)C(F)(F)F)[C@H]1CC[C@H]2[C@@H]3CC=C4C[C@@](C)(O)CC[C@@H]4[C@H]3CC[C@]12C
EC50 [1]: 93 nM | Emax [3]: 50% | EC50 [2]: 250 nM | Emax [4]: 52%

Structure (SMILES): COCC[C@@](C)(O)CC[C@@H](C)[C@H]1CC[C@H]2[C@@H]3CC=C4C[C@@](C)(O)CC[C@]4(C)[C@H]3CC[C@]12C
EC50 [1]: 220 nM | Emax [3]: 87% | EC50 [2]: 590 nM | Emax [4]: 130%

Structure (SMILES): CC(C)[C@@H](O)CC[C@@H](C)[C@H]1CC[C@H]2[C@@H]3CC=C4C[C@@H](O)CC[C@]4(C)[C@H]3CC[C@]12C
CL/F [5]: 91.7 mL/min/kg | half-life [6]: < 0.6 h | bioavailability [7]: < 10%

Structure (SMILES): CC(C)[C@](C)(O)CC[C@@H](C)[C@H]1CC[C@H]2[C@@H]3CC=C4C[C@@](C)(O)CC[C@]4(C)[C@H]3CC[C@]12C
EC50 [1]: 120 nM | Emax [3]: 170% | EC50 [2]: 81 nM | Emax [4]: 150%

Structure (SMILES): CC[C@](C)(O)CC[C@@H](C)[C@H]1CC[C@H]2[C@@H]3CC=C4C[C@@](C)(O)CC[C@]4(C)[C@H]3CC[C@]12C
microsomal CLint at 10 µM [8]: 2.7 µL/min/mg | EC50 [1]: 55 nM | Emax [3]: 170% | EC50 [2]: 100 nM | Emax [4]: 120% | logD at 20 µM [9]: 6.5 | microsomal CLint at 10 µM [10]: 8.4 µL/min/mg | microsomal CLint at 10 µM [11]: 0.14 µL/min/mg | clearance [12]: 36.7 mL/min/kg | bioavailability [13]: 89% | Kp at 1 h [14]: 0.2

Structure (SMILES): C[C@H](CC[C@](C)(O)C1CC1)[C@H]1CC[C@H]2[C@@H]3CC=C4C[C@@](C)(O)CC[C@]4(C)[C@H]3CC[C@]12C
EC50 [1]: 420 nM | Emax [3]: 130% | EC50 [2]: 60 nM | Emax [4]: 130%

Structure (SMILES): C[C@H](CCC(C)(C)O)[C@H]1CC[C@H]2[C@@H]3CC=C4C[C@@](C)(O)CC[C@]4(C)[C@H]3CC[C@]12C
microsomal CLint at 10 µM [8]: 35 µL/min/mg | logD at 20 µM [9]: 5 | solubility at 1 h [15]: 0.62 µM (≈ 0.25 µg/mL) | microsomal CLint at 10 µM [10]: 42 µL/min/mg | microsomal CLint at 10 µM [16]: 16 µL/min/mg | microsomal CLint at 10 µM [11]: 13 µL/min/mg | clearance [17]: 18.3 mL/min/kg | clearance [12]: 30 mL/min/kg | clearance [18]: 3.33 mL/min/kg | bioavailability [19]: 53% | bioavailability [13]: 23% | bioavailability [20]: 17% | Kp at 1 h [14]: 0.6 | CL/F [5]: 18.3 mL/min/kg | half-life [6]: 1.7 h

Structure (SMILES): C[C@H](CC[C@@H](O)C(F)(F)F)[C@H]1CC[C@H]2[C@@H]3CC=C4C[C@@](C)(O)CC[C@]4(C)[C@H]3CC[C@]12C
CL/F [5]: 33.3 mL/min/kg | half-life [6]: 5.75 h | bioavailability [7]: 18%

Structure (SMILES): C[C@H](CC[C@](C)(O)CCO)[C@H]1CC[C@H]2[C@@H]3CC=C4C[C@@](C)(O)CC[C@]4(C)[C@H]3CC[C@]12C
EC50 [1]: > 10000 nM | EC50 [2]: > 10000 nM

EC50 [1]: 2200 nM | EC50 [2]: 1500 nM
Structure (SMILES): C[C@H](CC[C@](C)(O)C(F)(F)F)[C@H]1CC[C@H]2[C@@H]3CC=C4C[C@](C)(O)CC[C@]4(C)[C@H]3CC[C@]12C

Structure (SMILES): CC(C)[C@@](C)(O)CC[C@@H](C)[C@H]1CC[C@H]2[C@@H]3CC=C4C[C@@](C)(O)CC[C@]4(C)[C@H]3CC[C@]12C
EC50 [1]: 60 nM | Emax [3]: 260% | EC50 [2]: 23 nM | Emax [4]: 220% | logD at 20 µM [9]: 6.7 | microsomal CLint at 10 µM [10]: 31 µL/min/mg | microsomal CLint at 10 µM [11]: 6.8 µL/min/mg | clearance [12]: 31.7 mL/min/kg | bioavailability [13]: 116% | Kp at 1 h [14]: 0.2

Structure (SMILES): CC[C@@](C)(O)CC[C@@H](C)[C@H]1CC[C@H]2[C@@H]3CC=C4C[C@@](C)(O)CC[C@]4(C)[C@H]3CC[C@]12C
EC50 [1]: 150 nM | Emax [3]: 280% | EC50 [2]: 300 nM | Emax [4]: 190%

Structure (SMILES): C#C[C@@](C)(O)CC[C@@H](C)[C@H]1CC[C@H]2[C@@H]3CC=C4C[C@@](C)(O)CC[C@]4(C)[C@H]3CC[C@]12C
EC50 [1]: > 10000 nM | EC50 [2]: 1100 nM | Emax [4]: 56%

EC50 [1]: 310 nM | EC50 [2]: 180 nM
Structure (SMILES): C[C@H](CC[C@@](C)(O)C(F)(F)F)[C@H]1CC[C@H]2[C@@H]3CC=C4C[C@@](C)(O)CC[C@]4(C)[C@H]3CC[C@]12C

Structure (SMILES): C[C@H](CC[C@@](C)(O)CCO)[C@H]1CC[C@H]2[C@@H]3CC=C4C[C@@](C)(O)CC[C@]4(C)[C@H]3CC[C@]12C
EC50 [1]: > 10000 nM | EC50 [2]: > 10000 nM

Structure (SMILES): CCCC[C@](C)(O)CC[C@@H](C)[C@H]1CC[C@H]2[C@@H]3CC=C4C[C@@](C)(O)CC[C@]4(C)[C@H]3CC[C@]12C
EC50 [1]: 100 nM | Emax [3]: 170% | EC50 [2]: 450 nM | Emax [4]: 170%

Structure (SMILES): C[C@H](CC[C@@](C)(O)C1CC1)[C@H]1CC[C@H]2[C@@H]3CC=C4C[C@@](C)(O)CC[C@]4(C)[C@H]3CC[C@]12C
EC50 [1]: 74 nM | Emax [3]: 180% | EC50 [2]: 49 nM | Emax [4]: 140%
